Where a SMILES comes first, the peptide text is derived from it. Bridges are numbered along the chain shown (N, C = ends).
Tests used:
[1] = test system: KV4.1/K283D mutant; experiment: Whole-cell patch clamp, KV4.1/K283D in CHO-K1 cells; format: cell-based, mouse
Experimental: (§1) The cDNA of hKV1.1, hKV1.3, rKV1.4, hKV1.5, rKV2.1, hKV3.1–3.4, mKV4.1, rKV4.2, and rKV4.3 were subcloned in the eukaryotic expression vector pCDNA3.1 or pCMV-blank. Channel mutants were made by a site-directed mutation method. Briefly, a pair of oppositely directed primers with 15 bp overlap at their 5′ ends and the designed mutation site were used to amplify the parental channel plasmid, then the PCR mix was treated with DpnI to remove the template. 10 μL digestion mix was directly used to transform 100 μL DH5α chemical competent cells. The correct mutation made by this procedure was finally confirmed by DNA sequencing. CHO-K1 cells (ATCC® CCL-61™) were grown in DMEM-F12 mixed medium (1:1) supplemented with 10% FBS and maintained in standard conditions (saturated humidity, 37°C, 5% CO2). Channel plasmid was co-transfected with pEGFP-N1 (encodes the green fluoresence protein) into CHO-K1 cells using lipofectamine 2000 following the manufacturer’s instructions. 4–6 h after transfection, cells were seeded onto poly-lysine (PLL) coated coverslips, and 24–36 h later, transfected cells were ready for patch-clamp analysis. It should be note that KV4.2 and its mutants were also co-expressed with hKChIP1 to promote their functional expressions.
(§2) Whole-cell patch clamp recording was performed in an electrophysiology platform equipped with MultiClamp 700B amplifier and Axon Digidata 1550 AD/DA convertor (Axon Instruments, Irvine, CA, United States). Data were acquired using the pClamp software (Axon Instruments, Irvine, CA, United States). All experiments were performed at room temperature. The bath solution contains (in mM): 140 NaCl, 5 KCl, 1 MgCl2, 2 CaCl2, 10 glucose, and 10 HEPES (pH = 7.3). The pipette solution contains (in mM): 140 KCl, 2.5 MgCl2, 11 EGTA, and 10 HEPES (pH = 7.3). Series resistance was kept below 10 MΩ and compensated to 80%. The concentration–response curves were fitted by a Hill logistic equation to estimate the potency (IC50) of the toxin. The whole cell conductance (G) at each depolarizing voltage (V) was determined using the equation: G = I/(V−Vrev), where I and Vrev represents the current amplitude and the reversal potential, respectively. In the present study, Vrev for K^+ current is determined to be −85.61 mV using the Nernst equation. G-V curve was obtained by plotting the normalized G as a function of V and fitted by the Boltzmann equation: y = 1/{1 + exp [(Va−V)/K]}, in which Va, V, and K represents half-maximum activation voltage, test voltage and slope factor, respectively. The steady-state fast inactivation of KV4 channels was measured using a classical two-pulses protocol: cell was held at −120 mV, and a train of conditional voltages (−120–40 mV, in 10 mV increment, 1,000 ms) were applied to induce channel inactivation, followed by a +60 mV test pulse (300 ms) to assess the proportion of non-inactivated channels; the sweep interval was set to 10 s. Currents at the test pulse (I) were normalized to the maximum value (Imax) and plotted as a function of the conditional voltage (V), the curve was fitted by the Boltzmann equation: I/Imax = A + (1−A)/{1 + exp [(V−Vh)/K]}, where Vh is the half-maximum inactivation voltage, A represents the minimum channel availability, and K is the slope factor. Gating currents of KV4.1–4.3 channels were measured as previously reported ([Tilley et al., 2019]). Briefly, the ionic pore currents were abolished by replacing K^+ with NMDG^+ in the pipette solution, and 10 µM Cs^+ was present in the bath solution to occupy the selectivity filter of KV channels to prevent decay of the gating currents during recording.
(§3) Data were presented as MEAN ± SEM, n represents the number of separate experimental cells. Data were analyzed using the software Clampfit 10.5 (Axon Instruments, Irvine, CA, United States), Graphpad Prism 5.01 (GraphPad Software, La Jolla, CA, United States) and Excel 2010 (Microsoft Corporation, Redmond, WA, United States). […]

[2] = test system: KV4.1 channel gating currents; experiment: Gating current recording, KV4.1; format: cell-based, mouse; settings: KV4.1, n = 5–6
Experimental: (§4) The cDNA of hKV1.1, hKV1.3, rKV1.4, hKV1.5, rKV2.1, hKV3.1–3.4, mKV4.1, rKV4.2, and rKV4.3 were subcloned in the eukaryotic expression vector pCDNA3.1 or pCMV-blank. Channel mutants were made by a site-directed mutation method. Briefly, a pair of oppositely directed primers with 15 bp overlap at their 5′ ends and the designed mutation site were used to amplify the parental channel plasmid, then the PCR mix was treated with DpnI to remove the template. 10 μL digestion mix was directly used to transform 100 μL DH5α chemical competent cells. The correct mutation made by this procedure was finally confirmed by DNA sequencing. […] 4–6 h after transfection, cells were seeded onto poly-lysine (PLL) coated coverslips, and 24–36 h later, transfected cells were ready for patch-clamp analysis. […]
(§5) Whole-cell patch clamp recording was performed in an electrophysiology platform equipped with MultiClamp 700B amplifier and Axon Digidata 1550 AD/DA convertor (Axon Instruments, Irvine, CA, United States). […] The whole cell conductance (G) at each depolarizing voltage (V) was determined using the equation: G = I/(V−Vrev), where I and Vrev represents the current amplitude and the reversal potential, respectively. In the present study, Vrev for K^+ current is determined to be −85.61 mV using the Nernst equation. […] Gating currents of KV4.1–4.3 channels were measured as previously reported ([Tilley et al., 2019]). […]

[3] = test system: KV4.2/T282P mutant (T280P in text); experiment: Whole-cell patch clamp, KV4.2/T282P (text: KV4.2/T280P) (with hKChIP1) in CHO-K1 cells; format: cell-based, rat
Experimental: as §1
as §2, with “Currents at the test pulse (I) were normalized to the maximum value (Imax) and plotted as a function of the conditional voltage (V), the curve was fitted by the Boltzmann equation: I/Imax = A + (1−A)/{1 + exp [(V−Vh)/K]}, where Vh is the half-maximum inactivation voltage, A represents the minimum channel availability, and K is the slope factor.” left out, “Briefly, the ionic pore currents were abolished by replacing K^+ with NMDG^+ in the pipette solution, and 10 µM Cs^+ was present in the bath solution to occupy the selectivity filter of KV channels to prevent decay of the gating currents during recording.” left out
as §3

[4] = molecular target: T1, KV4.3 channel (rKV4.3) (Rattus norvegicus, UniProt Q62897); experiment: Whole-cell patch clamp, KV4.3 in CHO-K1 cells; format: cell-based
T1 construct: expressed in transfected cells; host or cells: CHO-K1 (transient, co-transfected with pEGFP-N1)
T1 sequence (Q62897 1-655): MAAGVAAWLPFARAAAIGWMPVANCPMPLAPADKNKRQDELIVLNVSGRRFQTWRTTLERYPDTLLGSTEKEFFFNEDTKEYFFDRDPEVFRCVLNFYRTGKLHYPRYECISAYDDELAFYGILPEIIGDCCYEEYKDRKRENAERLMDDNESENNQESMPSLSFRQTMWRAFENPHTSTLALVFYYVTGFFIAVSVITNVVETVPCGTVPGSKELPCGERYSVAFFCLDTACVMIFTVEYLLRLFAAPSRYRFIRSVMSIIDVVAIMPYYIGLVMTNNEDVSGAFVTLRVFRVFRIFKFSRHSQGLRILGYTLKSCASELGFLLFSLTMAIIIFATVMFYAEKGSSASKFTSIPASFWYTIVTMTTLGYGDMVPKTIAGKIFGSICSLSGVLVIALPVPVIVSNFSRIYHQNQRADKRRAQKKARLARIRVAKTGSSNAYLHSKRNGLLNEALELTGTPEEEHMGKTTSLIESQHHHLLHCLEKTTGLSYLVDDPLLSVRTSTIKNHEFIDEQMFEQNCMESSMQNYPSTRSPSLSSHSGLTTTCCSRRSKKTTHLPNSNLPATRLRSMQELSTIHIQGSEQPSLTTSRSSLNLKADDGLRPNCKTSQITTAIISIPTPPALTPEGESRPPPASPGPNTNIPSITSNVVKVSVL
Experimental: as §1, §2, §3

[5] = test system: KV2.1 channel (rKV2.1); experiment: Whole-cell patch clamp selectivity, KV2.1; format: cell-based, rat; settings: KV2.1, 10 µM, n = 5
Experimental: as §4, §5

[6] = 10 μM κ-LhTx-1, G-V, mean ± SEM, n = 5
[7] = 10 μM κ-LhTx-1, two-pulse protocol, mean ± SEM, n = 5
[8] = 10 μM κ-LhTx-1, KV4.2/T282P, G-V, mean ± SEM, n = 5
[9] = 10 μM κ-LhTx-1, KV4.2/T282P, two-pulse protocol, mean ± SEM, n = 5
[10] = 10 μM κ-LhTx-1, KV4.3, G-V, mean ± SEM, n = 10
[11] = 10 μM κ-LhTx-1, KV4.3, two-pulse protocol, mean ± SEM, n = 7

CC[C@H](C)[C@@H]1NC(=O)[C@H](CCC(N)=O)NC(=O)[C@@H]2CSSC[C@@H]3NC(=O)[C@H](CC(C)C)NC(=O)[C@H](CC(N)=O)NC(=O)[C@H](CCSC)NC(=O)[C@H](Cc4c[nH]c5ccccc45)NC(=O)[C@H](CO)NC(=O)[C@H](C)NC(=O)[C@@H](NC(=O)[C@H](CCC(=O)O)NC(=O)[C@H](CCC(N)=O)NC(=O)[C@H](C)NC(=O)[C@H](CC(=O)O)NC(=O)[C@@H](N)CCC(=O)O)CSSC[C@H](NC(=O)[C@H](CSSC[C@@H](C(=O)N[C@@H](CCCCN)C(=O)N[C@@H](Cc4ccc(O)cc4)C(=O)N[C@@H](CCCCN)C(=O)N[C@@H](CC(C)C)C(N)=O)NC(=O)[C@H](Cc4c[nH]c5ccccc45)NC1=O)NC(=O)[C@H](CCCCN)NC(=O)[C@H](CCCCN)NC(=O)[C@H](CCC(=O)O)NC(=O)CNC3=O)C(=O)N[C@@H](CCC(=O)O)C(=O)NCC(=O)N[C@@H](Cc1ccc(O)cc1)C(=O)N[C@@H](C(C)C)C(=O)N2 [κ-LhTx-1] (H-EDAQECASWMNLCGEKKCCEGYVCQIWCKYKL-NH2; disulfide 6-19, 13-24, 18-28 (inferred); N-terminus and C-terminus assumed)
∆Va and inhi%(min) vs wild-type KV4.1 ([1]; 10 μM): unchanged ∆Va and inhi%(min) | Va (steady-state activation) [1, 6]: 91.34 ± 3.47 mV | k, slope factor (steady-state activation) [1, 6]: 17.49 ± 1.57 mV | Vh (steady-state inactivation) [1, 7]: -36.39 ± 3.03 mV | k, slope factor (steady-state inactivation) [1, 7]: 19.23 ± 1.48 mV | potency vs wild-type KV4.1 ([1]; +30 mV, n = 5): only slightly reduced κ-LhTx-1 potency | ∆Va (steady-state activation) ([1]; Va shift by 10 μM κ-LhTx-1 vs control, mean ± SEM): 103.10 ± 4.22 mV | ∆Vh (steady-state inactivation) ([1]; Vh shift by 10 μM κ-LhTx-1 vs control, mean ± SEM): 24.74 ± 3.63 mV | gating current inhibition [2]: inhibited the gating currents | Va (steady-state activation) [3, 8]: 16.93 ± 2.90 mV | k, slope factor (steady-state activation) [3, 8]: 25.61 ± 0.68 mV | Vh (steady-state inactivation) [3, 9]: -71.72 ± 3.71 mV | k, slope factor (steady-state inactivation) [3, 9]: 5.86 ± 0.21 mV | toxin inhibition ([3]; KV4.2/T280P, 10 μM, all voltages, n = 5–6): resistant to toxin inhibition at all voltages | Va (steady-state activation) [4, 10]: 46.86 ± 1.52 mV | k, slope factor (steady-state activation) [4, 10]: 20.45 ± 0.30 mV | Vh (steady-state inactivation) [4, 11]: -30.87 ± 2.23 mV | k, slope factor (steady-state inactivation) [4, 11]: 6.21 ± 0.43 mV | reversibility of inhibition ([4]; KV4.3): in a reversible manner | voltage-dependence of inhibition ([4]; KV4.3, 10 µM, inhibition ratio at each depolarizing voltage, n = 5–8): decreased quickly with the increment of the depolarizing voltage | I-V relationship shift ([4]; KV4.3, 10 µM, n = 5–8): only a small shift | current inhibition at Va ([4]; KV4.3 at Va depolarizing voltage): almost fully inhibited | ∆Va (steady-state activation) ([4]; Va shift by 10 μM κ-LhTx-1 vs control, KV4.3, mean ± SEM): 39.88 ± 2.19 mV | ∆Vh (steady-state inactivation) ([4]; Vh shift by 10 μM κ-LhTx-1 vs control, KV4.3, mean ± SEM): 14.83 ± 3.34 mV | effect on currents [5]: did not remarkably affect the currents

From paper PMC8222713, “Variation of Two S3b Residues in KV4.1–4.3 Channels Underlies Their Different Modulations by Spider Toxin κ-LhTx-1” (Frontiers in Pharmacology, 2021)
